{
  "source": "patent US20160158200A1",
  "about": "“Combinations of Hepatitis C Virus Inhibitors” (priority 2013, published 2016)",
  "key": {"[1]": {"tested_on": "HCV genotype 1a Y93H variant with tyrosine 93 changed to histidine in the NS5A protein", "test": "microbe, parasite or virus in culture", "type": "cell-based", "conditions": "for Fold-Synergistic G-1a (Y93H): genotype 1a Y93H replicon, test compound titrated with compound N47 fixed at 200 nM versus singly; for EC50: Hepatitis C virus", "outline": "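In an HCV genotype 1a replicon cell-based assay carrying the NS5A Y93H substitution, BMS-790052 was tested alone and in combination with a fixed amount of a second test compound. The combinations were examined for synergistic activity.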"}, "[2]": {"tested_on": "HCV genotype 1a L31V variant with leucine 31 changed to valine in the NS5A protein", "test": "microbe, parasite or virus in culture", "type": "cell-based", "conditions": "for Fold-Synergistic G-1a (L31V): genotype 1a L31V replicon, test compound titrated with compound N47 fixed at 200 nM versus singly; for EC50: Hepatitis C virus"}, "[3]": {"tested_on": "HCV genotype-1a variant with glutamine 30 changed to glutamate in the NS5A protein", "conditions": "cited from earlier work"}, "[4]": {"tested_on": "HCV genotype-1a variant with glutamine 30 changed to glutamate in the NS5A protein", "type": "cell-based", "conditions": "test compound titrated with BMS-790052 fixed at 200 nM; genotype 1a Q30E replicon", "outline": "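Synergy was assessed by combining several fixed amounts of an NS5A-targeting compound with a titration of the second compound of interest.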"}, "[5]": {"conditions": "compound alone, genotype 1a Q30E replicon, read-out: EC50, titrated singly"}, "[6]": {"conditions": "read-out: EC50, titrated singly"}, "[7]": {"conditions": "read-out: EC50 in combination with compound N47"}},
  "note": "Read-outs that look alike come from different tables or passages of the source.",
  "data": [
    {"smiles": "O=C(Nc1ccc(-c2ccc(NC(=O)[C@@H]3CCCN3C(=O)Cc3ccccc3)cc2)cc1)[C@@H]1CCCN1C(=O)Cc1ccccc1", "values": [
      {"measurement": "Fold-Synergistic G-1a (Y93H)", "setting": "[1]", "value": "<10", "unit": "fold"},
      {"measurement": "Fold-Synergistic G-1a (L31V)", "setting": "[2]", "value": "<10", "unit": "fold"}
    ]},
    {"smiles": "COC(=O)N[C@@H](C(=O)N1CCC[C@H]1c1ncc(-c2ccc(-c3ccc(-c4cnc([C@@H]5CCCN5C(=O)[C@H]5CCCO5)[nH]4)cc3)cc2)[nH]1)c1ccccc1", "values": [
      {"measurement": "Fold-Synergistic G-1a (Y93H)", "setting": "[1]", "value": "<10", "unit": "fold"},
      {"measurement": "Fold-Synergistic G-1a (L31V)", "setting": "[2]", "value": "<10", "unit": "fold"}
    ]},
    {"smiles": "COC(=O)N[C@@H](C(=O)N1CCC[C@H]1c1nc(-c2ccc(Oc3ccc(-c4c[nH]c([C@@H]5CCCN5C(=O)[C@H](NC(=O)OC)c5ccccc5)n4)cc3)cc2)c[nH]1)c1ccccc1", "values": [
      {"measurement": "Fold-Synergistic G-1a (Y93H)", "setting": "[1]", "value": "<10", "unit": "fold"},
      {"measurement": "Fold-Synergistic G-1a (L31V)", "setting": "[2]", "value": "<10", "unit": "fold"}
    ]},
    {"smiles": "COC(=O)N[C@@H](C(=O)N1CCC[C@H]1c1nc(-c2ccc(Oc3cccc(-c4cnc([C@@H]5CCCN5C(=O)[C@H](NC(=O)OC)c5ccccc5)[nH]4)c3)cc2)c[nH]1)c1ccccc1", "values": [
      {"measurement": "Fold-Synergistic G-1a (Y93H)", "setting": "[1]", "value": "<10", "unit": "fold"},
      {"measurement": "Fold-Synergistic G-1a (L31V)", "setting": "[2]", "value": "<10", "unit": "fold"}
    ]},
    {"smiles": "CN(C)[C@@H](C(=O)N1CCC[C@H]1c1nc(-c2ccc(COCc3ccc(-c4c[nH]c([C@@H]5CCCN5C(=O)[C@@H](c5ccccc5)N(C)C)n4)cc3)cc2)c[nH]1)c1ccccc1", "values": [
      {"measurement": "Fold-Synergistic G-1a (Y93H)", "setting": "[1]", "value": "<10", "unit": "fold"},
      {"measurement": "Fold-Synergistic G-1a (L31V)", "setting": "[2]", "value": "<10", "unit": "fold"}
    ]},
    {"smiles": "CN(C)[C@@H](C(=O)N1CCC[C@H]1c1nc(-c2ccc(COc3ccc(-c4c[nH]c([C@@H]5CCCN5C(=O)[C@@H](c5ccccc5)N(C)C)n4)cc3)cc2)c[nH]1)c1ccccc1", "values": [
      {"measurement": "Fold-Synergistic G-1a (Y93H)", "setting": "[1]", "value": "<10", "unit": "fold"},
      {"measurement": "Fold-Synergistic G-1a (L31V)", "setting": "[2]", "value": "<10", "unit": "fold"}
    ]},
    {"smiles": "COC(=O)N[C@@H](C(=O)N1CCC[C@H]1c1nc(-c2ccc(CCc3ccc(-c4c[nH]c([C@@H]5CCCN5C(=O)[C@H](NC(=O)OC)c5ccccc5)n4)cc3)cc2)c[nH]1)c1ccccc1", "values": [
      {"measurement": "Fold-Synergistic G-1a (Y93H)", "setting": "[1]", "value": "<10", "unit": "fold"},
      {"measurement": "Fold-Synergistic G-1a (L31V)", "setting": "[2]", "value": "<10", "unit": "fold"}
    ]},
    {"smiles": "CN(C)[C@@H](C(=O)N1CCC[C@H]1c1ncc(-c2ccc(-c3ccc(-c4ccc(-c5cnc([C@@H]6CCCN6C(=O)[C@@H](c6ccccc6)N(C)C)[nH]5)cc4)cc3)cc2)[nH]1)c1ccccc1", "values": [
      {"measurement": "Fold-Synergistic G-1a (Y93H)", "setting": "[1]", "value": "<10", "unit": "fold"},
      {"measurement": "Fold-Synergistic G-1a (L31V)", "setting": "[2]", "value": "<10", "unit": "fold"}
    ]},
    {"smiles": "COC(=O)N[C@@H](C(=O)N1CCC[C@H]1c1ncc(-c2ccc(-c3ncc(-c4cnc([C@@H]5CCCN5C(=O)[C@H](NC(=O)OC)c5ccccc5)[nH]4)cn3)cc2)[nH]1)c1ccccc1", "values": [
      {"measurement": "Fold-Synergistic G-1a (Y93H)", "setting": "[1]", "value": "<10", "unit": "fold"},
      {"measurement": "Fold-Synergistic G-1a (L31V)", "setting": "[2]", "value": "<10", "unit": "fold"}
    ]},
    {"smiles": "C[C@H](NC(=O)[C@@H](c1ccccc1)N(C)C)c1ncc(-c2ccc(-c3ccc(-c4cnc([C@@H]5CCCN5C(=O)[C@@H](c5ccccc5)N(C)C)[nH]4)cn3)cc2)[nH]1", "values": [
      {"measurement": "Fold-Synergistic G-1a (Y93H)", "setting": "[1]", "value": "<10", "unit": "fold"},
      {"measurement": "Fold-Synergistic G-1a (L31V)", "setting": "[2]", "value": "<10", "unit": "fold"}
    ]},
    {"smiles": "CN(C)[C@@H](C(=O)N1CCCC[C@H]1c1ncc(-c2ccc(-c3ccc(-c4cnc([C@@H]5CCCCN5C(=O)[C@@H](c5ccccc5)N(C)C)[nH]4)cc3)cc2)[nH]1)c1ccccc1", "values": [
      {"measurement": "Fold-Synergistic G-1a (Y93H)", "setting": "[1]", "value": ">10", "unit": "fold"},
      {"measurement": "Fold-Synergistic G-1a (L31V)", "setting": "[2]", "value": "<10", "unit": "fold"}
    ]},
    {"smiles": "COC(=O)N[C@H](C(=O)N1CCC[C@H]1c1nc(-c2ccc(-c3ccc(-c4c[nH]c([C@@H]5CCCN5C(=O)[C@@H](NC(=O)OC)C(C)C)n4)cc3)cc2)c[nH]1)C(C)C", "note": "[BMS-790052, reference compound]", "values": [
      {"measurement": "reciprocal synergistic inhibitory effect for the combination", "setting": "[3]; BMS-790052 titrated with P-55 fixed at 200 nM", "value": "~100", "unit": "fold"},
      {"measurement": "EC50", "setting": "[3]; [5]", "value": "~0.2", "unit": "µM"},
      {"measurement": "EC50", "setting": "[3]; fixed P-55 at 200 nM, genotype 1a Q30E, read-out: EC50 of BMS-790052 in the presence of P-55", "value": "~0.002", "unit": "µM"},
      {"measurement": "EC50", "setting": "[1]; [6]", "value": "~0.069", "unit": "µM"},
      {"measurement": "EC50", "setting": "[1]; [7]", "value": "< 0.0005", "unit": "µM"},
      {"measurement": "synergistic inhibitory effect for the combination", "setting": "[1]; titrated with 200 nM compound N47, genotype 1a Y93H", "value": "> 100", "unit": "fold"},
      {"measurement": "EC50", "setting": "[2]; [6]", "value": "~0.056", "unit": "µM"},
      {"measurement": "EC50", "setting": "[2]; [7]", "value": "< 0.0005", "unit": "µM"},
      {"measurement": "synergistic inhibitory effect with the combination", "setting": "[2]; titrated with 200 nM compound N47, genotype 1a L31V", "value": "> 100", "unit": "fold"}
    ]},
    {"smiles": "CC(C)CC(=O)N[C@H](c1ncc(-c2ccc(-c3ccc(-c4cnc([C@@H](NC(=O)CC(C)C)C(C)C)[nH]4)cc3)cc2)[nH]1)C(C)C", "note": "[Compound P-55]", "values": [
      {"measurement": "Fold-Synergistic 1a (Q30E)", "setting": "[4]", "value": ">100", "unit": "fold"},
      {"measurement": "synergistic inhibitory effect with the combination", "setting": "[3]; P-55 titrated with BMS-790052 fixed at 200 nM", "value": "> 100", "unit": "fold"},
      {"measurement": "EC50", "setting": "[3]; [5]", "value": "> 0.2", "unit": "µM"},
      {"measurement": "EC50", "setting": "[3]; fixed BMS-790052 at 200 nM, genotype 1a Q30E, read-out: EC50 of P-55 in the presence of BMS-790052", "value": "~0.002", "unit": "µM"}
    ]},
    {"smiles": "COC(=O)N[C@H](C(=O)N1C2CC2CC[C@H]1c1ncc(-c2ccc(-c3ccc(-c4cnc([C@@H]5CCC6CC6N5C(=O)[C@@H](NC(=O)OC)C(C)C)[nH]4)cc3)cc2)[nH]1)C(C)C", "note": "(stereo partly drawn) [drawing 2291]", "values": [
      {"measurement": "Fold-Synergistic G-1a (Y93H)", "setting": "[1]", "value": ">100", "unit": "fold"},
      {"measurement": "Fold-Synergistic G-1a (L31V)", "setting": "[2]", "value": ">100", "unit": "fold"}
    ]},
    {"smiles": "COC(=O)N[C@H](C(=O)N1C2CC2CC[C@H]1c1ncc(-c2ccc(-c3ccc(-c4cnc([C@@H]5CCC6CC6N5C(=O)[C@@H](NC(=O)OC)C(C)C)[nH]4)cc3)cc2)[nH]1)C(C)C", "note": "(stereo partly drawn) [drawing 2298]", "values": [
      {"measurement": "Fold-Synergistic G-1a (Y93H)", "setting": "[1]", "value": ">100", "unit": "fold"},
      {"measurement": "Fold-Synergistic G-1a (L31V)", "setting": "[2]", "value": ">100", "unit": "fold"}
    ]}
  ]
}
